Laboratory results published in the SangsterLogP compilation.

| logP | Structure (SMILES) |
| --- | --- |
| 1.67 | CCCCCCNC(=C[N+](=O)[O-])NS(=O)(=O)c1cnccc1NCCCCCC |
| 2.27 | CCCCCCCCNC(=C[N+](=O)[O-])NS(=O)(=O)c1cnccc1NCCCCCC |
| 2.59 | CCCCCCCCNc1ccncc1S(=O)(=O)NC(=C[N+](=O)[O-])NCCCCCCC |
| 1.59 | O=[N+]([O-])C=C(NC1CCCCC1)NS(=O)(=O)c1cnccc1NC1CCCCC1 |
| 1.99 | CCCCCCCNc1ccncc1S(=O)(=O)NC(=C[N+](=O)[O-])NCCCCCC |
| 2.86 | CCCCCCCCNC(=C[N+](=O)[O-])NS(=O)(=O)c1cnccc1NCCCCCCCC |

More lines, now with the values behind:

| Structure (SMILES) | logP |
| --- | --- |
| CCNc1ccncc1S(=O)(=O)NC(=C[N+](=O)[O-])NC(C)C | -0.48 |
| CCCCCCNC(=C[N+](=O)[O-])NS(=O)(=O)c1cnccc1Nc1cccc(C)c1 | 1.66 |
| CCCCCCCNC(=C[N+](=O)[O-])NS(=O)(=O)c1cnccc1NCCCCCCC | 2.3 |
| CCCCCCCCNc1ccncc1S(=O)(=O)NC(=C[N+](=O)[O-])NCCCCCC | 2.31 |
| CCCCCCCNC(=C[N+](=O)[O-])NS(=O)(=O)c1cnccc1NCCCCCC | 1.97 |
